pIC50: −log10 of the molar value. Counter-ions that a name gives are not always drawn.
What follows are compounds tested on Huh7 cells expressing a subgenomic RNA replicon of Con1 (genotype 1b) sequence origin (assay: microbe, parasite or virus in culture). Conditions: Hepatitis C virus, Huh-7.

Row | SMILES | pIC50
1 | O=C(c1ccc(OCCN2CCCCC2)cc1)c1c(-c2ccc(O)cc2)sc2cc(O)ccc12 [Raloxifene (e.g., hydrochloride), Raloxifene, reference compound] | 5.43
2 | O=c1oc2cc(O)ccc2s1 [Tioxolone, reference compound] | 4.79
3 | CC[C@H]1CN2CCc3cc(OC)c(OC)cc3[C@@H]2C[C@@H]1C[C@H]1NCCc2cc(OC)c(OC)cc21 [Emetine (e.g., dihydrochloride hydrate), Emetine, reference compound] | 7.52
4 | CC1=C(O)C(=O)C=C2C1=CC=C1[C@@]2(C)CC[C@@]2(C)[C@@H]3C[C@](C)(C(=O)O)CC[C@]3(C)CC[C@]12C [Celastrol, reference compound] | 6.35
5 | CC1(C)C(/C=C/C=C/C=C/C=C2\N(CCCCS(=O)(=O)O)c3ccc4ccccc4c3C2(C)C)=[N+](CCCCS(=O)(=O)[O-])c2ccc3ccccc3c21 [Indocyanine Green, reference compound] | 5.09
6 | CN(C)C/C=C(/c1ccc(Br)cc1)c1cccnc1 [Zimelidine (e.g., dihydrochloride), Zimelidine, reference compound] | 4.82
7 | Nc1ccc(/N=N/c2ccccc2)c(N)n1 [Phenazopyridine (e.g., hydrochloride), Phenazopyridine, reference compound] | 5.11
8 | CCOc1cc(N)c(Cl)cc1C(=O)NCC1CN(Cc2ccc(F)cc2)CCO1 (stereo not drawn) [Mosapride (e.g., citrate), mosapride, reference compound] | 4.96
9 | O=C1Nc2ccc(Cl)cc2[C@@](C#CC2CC2)(C(F)(F)F)O1 [Efavirenz, efavirenz, reference compound] | 4.81
10 | COC(=O)[C@H]1[C@H]2C[C@@H]3c4[nH]c5cc(OC)ccc5c4CCN3C[C@H]2C[C@@H](OC(=O)/C=C/c2cc(OC)c(OC)c(OC)c2)[C@@H]1OC [Rescinnamine, reference compound] | 5.10
11 | O=C1CC(O)(c2ccccc2)Oc2ccccc21 (stereo not drawn) [2-Hydroxyflavanone, 2-hydroxyflavanone, reference compound] | 5.61
12 | Nc1ncnc2c1ncn2[C@@H]1O[C@H](CO)[C@@H](O)[C@@H]1O [Vidarabine, vidarabine, reference compound] | 4.57
13 | O=c1cc(N2CCOCC2)oc2c(-c3ccccc3)cccc12 [LY 294002, reference compound] | 5.47
14 | CC(C)[C@H](N)C(=O)O[C@@H]1[C@@H](CO)O[C@@H](n2ccc(N)nc2=O)[C@]1(C)O [Valopicitabine (NM-283), Valopicitabine, reference compound] | 4.95
15 | Cc1ccc(O)c([C@H](CCN(C(C)C)C(C)C)c2ccccc2)c1 [Tolterodine (e.g., tartrate), Tolterodine, reference compound] | 4.56
16 | O=c1[nH]cc(F)c(=O)[nH]1 [Fluorouracil, reference compound] | 4.73
17 | COC1=CC(=O)C[C@@H](C)[C@]12Oc1c(Cl)c(OC)cc(OC)c1C2=O [Griseofulvin (e.g., microcrystalline), Griseofulvin, reference compound] | 4.94
18 | CN1CCCCC1CCN1c2ccccc2Sc2ccc([S+](C)[O-])cc21 (stereo not drawn) [Mesoridazine (e.g., Besylate), mesoridazine, reference compound] | 4.72
19 | N[C@H](Cc1cc(I)c(Oc2cc(I)c(O)c(I)c2)c(I)c1)C(=O)O [Dextrothyroxine (e.g., sodium), dextrothyroxine, reference compound] | 5.30
20 | O=C1[C@H]2CCCC[C@H]2C(=O)N1CCCCN1CCN(c2nsc3ccccc23)CC1 [Perospirone, reference compound] | 5.44
21 | Oc1ccc(OCc2ccccc2)cc1 [Monobenzone, reference compound] | 5.80

Row | SMILES | pIC50
22 | CCCCOc1cc(C(=O)NCCN(CC)CC)c2ccccc2n1 [Dibucaine (e.g., hydrochloride), Dibucaine, reference compound] | 5.18
23 | OC(CCCN1CCCCC1)(c1ccccc1)c1ccccc1 [Diphenidol (e.g., hydrochloride), Diphenidol, reference compound] | 4.59
24 | CCN(CC)CCCC(C)Nc1c2ccc(Cl)cc2nc2ccc(OC)cc12 (stereo not drawn) [Quinacrine, reference compound] | 5.38
25 | CCC[C@H](NC(=O)[C@@H]1[C@H]2CCC[C@H]2CN1C(=O)[C@@H](NC(=O)[C@@H](NC(=O)c1cnccn1)C1CCCCC1)C(C)(C)C)C(=O)C(=O)NC1CC1 [Telaprevir (VX-950), vx-950, reference compound] | 6.28
26 | CCCCOc1cc(C(=O)OCCN(CC)CC)ccc1N [Benoxinate (e.g., hydrochloride), benoxinate, reference compound] | 5.52
27 | O=CN/C=C/c1cc(O)ccc1O [Erbstatin, reference compound] | 5.12
28 | CCN(CC)CCO[C@H]1CC[C@@]2(C)C(=CC[C@@H]3[C@@H]2CC[C@]2(C)C(=O)CC[C@@H]32)C1 [Example U18666A, reference compound] | 7.70
29 | CC(C)(C)C(=O)OCOP(=O)(COCCn1cnc2c(N)ncnc21)OCOC(=O)C(C)(C)C [Adefovir (e.g., dipivoxil), adefovir dipivoxil, reference compound] | 6.50
30 | C[C@H]1[C@@H](O)O[C@@H]2O[C@@]3(C)CC[C@H]4[C@H](C)CC[C@@H]1[C@@]24OO3 [Dihydroartemisinin, dihydroartemisinin, reference compound] | 5.41
31 | COC(=O)Nc1nc2ccc(Sc3ccccc3)cc2[nH]1 [Fenbendazole, reference compound] | 6.38
32 | CN(C)CCCC1(c2ccc(F)cc2)OCc2cc(C#N)ccc21 (stereo not drawn) [Citalopram (e.g., hydrobromide), Citalopram, reference compound] | 4.56
33 | c1ccc(-c2ccc(C(c3ccccc3)n3ccnc3)cc2)cc1 (stereo not drawn) [Bifonazole, reference compound] | 5.21
34 | COc1cc2c(cc1OC)-c1c/c(=N\c3c(C)cc(C)cc3C)n(C)c(=O)n1CC2 [Trequinsin (e.g., hydrochloride), Trequinsin, reference compound] | 5.53
35 | Cc1cccc(CN2CCN(C(c3ccccc3)c3ccc(Cl)cc3)CC2)c1 (stereo not drawn) [Meclizine, meclizine, reference compound] | 4.84
36 | CN/C(=N\c1ccc(C2=NNC(=O)CC2C)cc1)NC#N (stereo not drawn) [Siguazodan, reference compound] | 5.66
37 | CC(C)n1c(/C=C/C(O)CC(O)CC(=O)O)c(-c2ccc(F)cc2)c2ccccc21 (stereo not drawn) [Fluvastatin (e.g., sodium), fluvastatin, reference compound] | 4.65
38 | CC1(C)O[C@@H]2C[C@H]3[C@@H]4CCC5=CC(=O)CC[C@]5(C)[C@@]4(F)[C@@H](O)C[C@]3(C)[C@]2(C(=O)CCl)O1 [Halcinonide, halcinonide, reference compound] | 4.76
39 | CN(Cc1cc(Br)cc(Br)c1N)C1CCCCC1 [Bromhexine, reference compound] | 4.85
40 | COc1c(C)c2c(c(O)c1C/C=C(\C)CCC(=O)O)C(=O)OC2 [Mycophenolic Acid, Mycophenolic acid, reference compound] | 6.12
41 | COC(=O)Nc1nc2cc(C(=O)c3ccc(F)cc3)ccc2[nH]1 [Flubendazole, reference compound] | 6.76
42 | N[C@@H](Cc1ccc(N(CCCl)CCCl)cc1)C(=O)O [Melphalan, reference compound] | 5.23
